Drawing on patent US20090170768A1, “WATER-SOLUBLE CARBON NANOTUBE COMPOSITIONS FOR DRUG DELIVERY AND MEDICINAL APPLICATIONS” (William Marsh Rice University, priority 2007, published 2009), this text covers IC50, precipitation from solution and intracellular fluorescence for 2 compounds.

Data set [1] concerns UMSCC1 cells. As to the kind of experiment: MTT assay, in vitro cell killing in UMSCC1 cells. The data set is classed as cell-based. Conditions: Homo sapiens. Here is the method:
(§1) For the analyses, the analyses presented in FIGS. 1 and 2, the paclitaxel was dissolved in either acidic MeOH (FIG. 1) or neutral MeOH (FIG. 2) prior to association with the PEG-functionalized SWNTs. The MeOH was removed from the compositions by evaporation following sequestration of the paclitaxel by the PEG-functionalized SWNT matrix. MeOH removal was performed prior to MTT analysis. […] The control paclitaxel was dissolved in a cremaphor vehicle.
For the analysis presented in FIG. 4, the paclitaxel was dissolved in EtOH prior to association with the PEG-functionalized SWNTs. The EtOH was removed from the compositions by evaporation following sequestration of the paclitaxel by the PEG-functionalized SWNT matrix. EtOH removal was performed prior to MTT analysis.
On the technique in general: Formazan colour is commonly taken as a measure of viable cells.

For data set [2], the system named is Tu167 cells. As to the kind of experiment: MTT assay, in vitro cell killing in Tu167 cells. It is filed as cell-based. Here is the method:
as §1

Data set [3] is described as follows: Paclitaxel solubilization in water with or without PEG-functionalized carbon nanotubes.
Data set [4] has as its system cells. As to the kind of experiment: Intracellular delivery of FITC (cell fluorescence). It is filed as cell-based. Conditions: provided to cells. An excerpt: In certain embodiments, the compositions provide intracellular delivery of the at least one type of payload molecule. The intracellular delivery may occur in vitro or in vivo. […] Thus, the compositions provide intracellular delivery of the at least one type of payload molecule.

Where two headings read alike, the source gives them in different places.

With `CC(=O)O[C@H]1C(=O)[C@@]2(C)[C@H]([C@H](OC(=O)c3ccccc3)[C@]3(O)C[C@H](OC(=O)[C@H](O)[C@@H](NC(=O)c4ccccc4)c4ccccc4)C(C)=C1C3(C)C)[C@]1(OC(C)=O)CO[C@@H]1C[C@@H]2O` [PACLITAXEL, paclitaxel], the half-maximal inhibitory concentration (IC50) (commonly the concentration at which inhibition is half-maximal) in data set [1] (UMSCC1, cremaphor vehicle (FIG. 5), read-out: IC50 in UMSCC1 cells) was found to be 0.26 nM; in data set [1] (UMSCC1 cells, MTT, vehicle per row (cremaphor or aqueous), R^2 in parentheses, read-out: UMSCCI IC50 (nm): R^2), 0.26 nM; in data set [2] (Tu167 cells, MTT, vehicle per row (cremaphor or aqueous), R^2 in parentheses, read-out: Tu167 IC50 (nm): R^2) it was 0.62 nM; in data set [2] (dissolved in cremaphor vehicle (FIG. 3), read-out: IC50 in Tu167 cells), 0.62 nM. Also, the precipitation from solution result is “no paclitaxel precipitates from solution” in data set [3] (1 mg paclitaxel in 70 μL ethanol added to 1 mL of a solution containing PEG-functionalized carbon nanotubes) and “immediately precipitates from solution” in data set [3] (1 mg paclitaxel in 70 μL ethanol added to 1 mL of water).
For fluorescein isothiocyanate [FITC], the intracellular fluorescence result in data set [4] was “no intracellular fluorescence was observed”.
